Earlier results as cited in patent US20230321062A1, “COMBINATION THERAPIES” (Mirati Therapeutics, Inc., priority 2020, published 2023).
Where two headings read alike, the source gives them in different places. Square brackets hold non-standard residues; d marks the D form. Peptide text beside a SMILES is read from it. * marks the point of attachment. Dolaproine = CO[C@@H]([C@@H]1CCCN1)[C@@H](C)C(=O)O; Dil = CC[C@H](C)[C@H](NC)[C@@H](CC(=O)O)OC; X1 = C[C@@H](N*)[C@@H](O)c1ccccc1; NMeV = CN[C@H](C(=O)O)C(C)C

What was measured:
[1] = cited from earlier work
[2] = cited from earlier work; remark: listed apart in the source
Urothelial Carcinoma [3] = conditions: cited from earlier work
Urothelial Carcinoma [4] = conditions: cited from earlier work; remark: listed apart in the source
[5] = KEYNOTE-052, overall population
[6] = KEYNOTE-052, patients with CPS ≥10

Question: Which “steady-state concentrations reached after” value ([1]; 1.25 mg/kg Q3W regimen) does the source give for `CC[C@H](C)[C@@H]([C@@H](CC(=O)N1CCC[C@H]1[C@H](OC)[C@@H](C)C(=O)N[C@H](C)[C@@H](O)c1ccccc1)OC)N(C)C(=O)[C@@H](NC(=O)[C@@H](NC)C(C)C)C(C)C` [MMAE, monomethyl auristatin E] (H-[NMeV]V[Dil][Dolaproine]-X1) here?
Answer: 1 treatment cycle

Question: And the “exposure (AUC) in mild, moderate or severe renal impairment compared to normal renal function” value ([1]; 1.25 mg/kg enfortumab)?
Answer: No significant differences

Question: And the elimination half-life ([1]; after enfortumab dosing)?
Answer: 57.6 h

Question: What about the “accumulation following repeat administration of enfortumab” value ([1]; in vivo) of the same compound?
Answer: minimal accumulation

Question: What about the “time until which plasma concentrations increased after enfortumab dosing” value ([1]; in vivo) of the same compound?
Answer: ~2 days

Question: What about the “mean clearance (CL)” value ([1]; patients, after enfortumab dosing) of the same compound?
Answer: 2.7 L/h

Question: And the “AUC increase in patients with mild hepatic impairment compared to normal hepatic function” value ([1]; population PK, n=31)?
Answer: 48%

Question: With “pembrolizumab: humanized monoclonal IgG4 kappa antibody that blocks the interaction between PD-1 and its ligands, PD-L1 and PD-L2” as the compound, how does the “steady-state exposure versus dose” value ([2]; 2 to 10 mg/kg Q3W) read?
Answer: increased dose proportionally

Question: What about the systemic accumulation ([2]; Q3W regimen) of the same compound?
Answer: approximately 2.1 fold

Question: And the “geometric mean clearance (CL)” value ([2]; population PK, 2993 patients with various cancers)?
Answer: 195 mL/day

Question: What about the “geometric mean volume of distribution at steady state (Vss)” value ([2]; population PK) of the same compound?
Answer: 6.0 L

Question: And the “OS versus chemotherapy in subgroups” value (Urothelial Carcinoma [3]; KEYNOTE-045, all subgroups examined)?
Answer: OS benefit over chemotherapy

Question: And the “ORR as confirmed by central review” value (Urothelial Carcinoma [3]; KEYNOTE-045, patients with CPS≥10)?
Answer: 20%

Question: What about the “overall ORR as confirmed by central review” value (Urothelial Carcinoma [3]; KEYNOTE-045, pembrolizumab group) of the same compound?
Answer: 21%

Question: What about the “median DOR” value (Urothelial Carcinoma [3]; KEYNOTE-045) of the same compound?
Answer: not reached

Question: What about the median overall survival (Urothelial Carcinoma [3]; KEYNOTE-045) of the same compound?
Answer: 10.1 months

Question: What about the “median DOR” value (Urothelial Carcinoma [4]; [5]) of the same compound?
Answer: 30.1 months

Question: What about the “overall ORR as confirmed by central review” value (Urothelial Carcinoma [4]; [5]) of the same compound?
Answer: 29%

Question: What about the median overall survival (Urothelial Carcinoma [4]; KEYNOTE-052, overall) of the same compound?
Answer: 11.3 months

Question: What about the “ORR as confirmed by central review” value (Urothelial Carcinoma [4]; [6]) of the same compound?
Answer: 47%

Question: And the “median DOR” value (Urothelial Carcinoma [4]; [6])?
Answer: not reached

Question: And the median overall survival (Urothelial Carcinoma [4]; [6])?
Answer: 18.5 months
